Results from patent US20110028566A1, “COMPOSITIONS AND PRODUCTS CONTAINING CYCLOALIPHATIC DIOL ANTIMICROBIAL AGENTS AND METHODS OF USING THE COMPOSITIONS AND PRODUCTS” (EASTMAN CHEMICAL COMPANY, priority 2009, published 2011).

Columns and labels:
Assay in all cases: Microbial challenge testing in BPW
Assay type in all cases: cell-based
Staphylococcus aureus = details: for Grade code, S. aureus, 3 Day / Grade code, S. aureus, 14 Day / Grade code, S. aureus, 30 Day: BPW, w/v % in label, average of replicates
Protocol: (§1) The microorganisms used in challenge tests are given in Table 3, designated as either ATCC (American Type Culture Collection) or wild type. These wild type organisms were problematic organisms previously isolated from chemical products. In the description for each organism, the bacteria are indicated as either GN (Gram negative) or GP (Gram positive).
(§2) All of the microorganisms were grown in Tryptose Soy Broth (TSB), DIFCO™ available from Becton, Dickinson and Company, containing 1% dextrose. Aspergillus niger and Candida albicans were incubated at 22° C.±2° C. for at least 96 hours. All bacteria were incubated at 35° C.±2° C. in a humidified incubator for at least 96 hours.
(§3) The following procedure was followed to determine the amount of each challenge material (inoculum broth) required to produce a 10^8 cfu/mL challenge, which is equivalent to a final test-sample microbial concentration of 10^5 to 10^6 cfu (colony-forming units)/mL.
(§4) Using a sterile serological pipette, 1 mL of the growth from each TSB culture was transferred into tubes containing 9 mL phosphate buffer (pH 7.2) and mixed thoroughly. This process was repeated to make serial 1:10 dilutions. Then 0.1 mL of each sample and dilution was inoculated onto agar plates to produce the equivalent of a further 1:10 dilution. C. albicans and A. niger were inoculated onto SDA and bacteria were inoculated onto Plate Count Agar (PCA), DIFCO™ available from Becton, Dickinson and Company. The 0.1 mL aliquots were evenly distributed on the plates using the spread-plate technique. The spread-plate technique is performed by spreading the aliquot over the entire plate surface using a sterile spreading rod while rotating the plate with a rotary auto-plater. After the inoculum was absorbed completely, each plate was inverted and incubated (fungi at 22° C.±2° C. and bacteria at 35° C.±2° C.).
(§5) After incubation for at least 48 hours, colonies that had developed on the agar plates were counted and recorded with the corresponding dilution. If counting had to be delayed temporarily, plates were refrigerated, preferably no more than 24 hours, until they could be counted. The number of cfu/mL was determined by multiplying the count by the dilution factor for that particular plate.
(§6) Turbidity in Nepholemetric Turbidity Units (NTU) was measured for each serial dilution using the HF-Micro 100 Model Turbidimeter. For each microorganism, the plate counts were compared to the turbidity readings.
(§7) Control substrates (“broth alone”) were prepared for each microorganism separately in triplicate by adding 13.5 mL of BPW (pH 7.0) containing 1% (w/v) dextrose to each 20-mL glass tube; then adding 1.5 mL challenge material to produce a final concentration at time zero of 10^5 to 10^6 cfu/mL and a total volume of 15 mL.
(§8) Test sample substrates were prepared containing each test material (1,4-CHDM, etc) or combination of test materials at the concentrations shown in Tables 5 and 6. Sample substrates were prepared in triplicate, except those substrates containing PE or CG which were prepared in duplicate. Substrates were prepared by adding BPW containing 1% (w/v) dextrose to each 20-mL glass tube, then adding the test material in the amount appropriate to achieve the desired weight/volume percent (g/100 mL) and to obtain a total volume of BPW with dextrose and test material of 13.5 mL. Then 1.5 mL challenge material was added to produce a final concentration at time zero of 10^5 to 10^6 cfu/mL of the respective organism and a total test sample substrate volume of 15 mL.
(§9) After mixing, all challenged substrates were incubated at 35° C.±2° C. for 14 days and then at ambient room temperature.

Proteus vulgaris = details: for Grade code, P. vulgaris, 3 Days / Grade code, P. vulgaris, 13 Days / Grade code, P. vulgaris, 30 Day: BPW, w/v % in label, average of replicates
Protocol: as §1, §2, §3, §4, §5, §6, §7, §8, §9

Bacillus subtilis = test system: Bacillus subtilis
Protocol: as §1, §2, §3, §4, §5, §6, §7, §8, §9

[1] = 3 days incubation, listed as 0.5% AB
[2] = 3 days incubation, listed as 1.25% AB
[3] = 3 days incubation, listed as 2.5% AB
[4] = 30 days incubation, listed as 0.5% AB
[5] = 30 days incubation, listed as 1.25% AB
[6] = 30 days incubation, listed as 2.5% AB

With `OCC1CCC(CO)CC1` (centres unmarked) [1,4-CHDM, 1,4-cyclohexanedimethanol] the “Grade code S. aureus” value (Staphylococcus aureus; 1.25%, 14 days incubation) was 2.7, the “Grade code S. aureus” value (Staphylococcus aureus; 1.25%, 30 days incubation) was 4 (1001 to 10,000 colonies (thus 10,000 cfu/mL to 100,000 cfu/mL)) and the “Grade code S. aureus” value (Staphylococcus aureus; 2.5%, 3 days incubation) was 1.7. For the same compound, the “Grade code S. aureus” value (Staphylococcus aureus; 2.5%, 14 days incubation) was 1 (1 to 51 colonies counted (thus 10 to 510 cfu/mL)), the “Grade code S. aureus” value (Staphylococcus aureus; 2.5%, 30 days incubation) was 0 (No growth detected or <1 colony (thus <10 cfu/mL)) and the “Grade code, S. aureus, 3 Day” value (Staphylococcus aureus; [1]) was 4 (1001 to 10,000 colonies (thus 10,000 cfu/mL to 100,000 cfu/mL)). For the same compound, the “Grade code, S. aureus, 3 Day” value (Staphylococcus aureus; [2]) was 3 (101 to 1000 colonies (thus 1000 to 10,000 cfu/mL)), the “Grade code, S. aureus, 3 Day” value (Staphylococcus aureus; [3]) was 1.7 and the “Grade code, S. aureus, 14 Day” value (Staphylococcus aureus; 14 days incubation, listed as 0.5% AB) was 4 (1001 to 10,000 colonies (thus 10,000 cfu/mL to 100,000 cfu/mL)). The “Grade code, S. aureus, 14 Day” value (Staphylococcus aureus; 14 days incubation, listed as 1.25% AB) was 2.7, the “Grade code, S. aureus, 14 Day” value (Staphylococcus aureus; 14 days incubation, listed as 2.5% AB) was 1 (1 to 51 colonies counted (thus 10 to 510 cfu/mL)) and the “Grade code, S. aureus, 30 Day” value (Staphylococcus aureus; [4]) was 4 (1001 to 10,000 colonies (thus 10,000 cfu/mL to 100,000 cfu/mL)). For the same compound, the “Grade code, S. aureus, 30 Day” value (Staphylococcus aureus; [5]) was 4 (1001 to 10,000 colonies (thus 10,000 cfu/mL to 100,000 cfu/mL)), the “Grade code, S. aureus, 30 Day” value (Staphylococcus aureus; [6]) was 0 (No growth detected or <1 colony (thus <10 cfu/mL)) and the “Grade code P. vulqaris” value (Proteus vulgaris; 0.5%, 3 days incubation) was 4 (1001 to 10,000 colonies (thus 10,000 cfu/mL to 100,000 cfu/mL)). For the same compound, the “Grade code P. vulqaris” value (Proteus vulgaris; 0.5%, 13 days incubation) was 4 (1001 to 10,000 colonies (thus 10,000 cfu/mL to 100,000 cfu/mL)), the “Grade code P. vulqaris” value (Proteus vulgaris; 0.5%, 30 days incubation) was 4 (1001 to 10,000 colonies (thus 10,000 cfu/mL to 100,000 cfu/mL)) and the “Grade code P. vulqaris” value (Proteus vulgaris; 1.25%, 3 days incubation) was 3 (101 to 1000 colonies (thus 1000 to 10,000 cfu/mL)). The “Grade code P. vulqaris” value (Proteus vulgaris; 1.25%, 13 days incubation) was 2 (52 to 100 colonies counted (thus 520 to 1000 cfu/mL)), the “Grade code P. vulqaris” value (Proteus vulgaris; 1.25%, 30 days incubation) was 0 (No growth detected or <1 colony (thus <10 cfu/mL)) and the “Grade code P. vulqaris” value (Proteus vulgaris; 2.5%, 3 days incubation) was 1 (1 to 51 colonies counted (thus 10 to 510 cfu/mL)). For the same compound, the “Grade code P. vulqaris” value (Proteus vulgaris; 2.5%, 13 days incubation) was 0 (No growth detected or <1 colony (thus <10 cfu/mL)), the “Grade code P. vulqaris” value (Proteus vulgaris; 2.5%, 30 days incubation) was 0 (No growth detected or <1 colony (thus <10 cfu/mL)) and the “Grade code, P. vulgaris, 3 Days” value (Proteus vulgaris; [1]) was 4 (1001 to 10,000 colonies (thus 10,000 cfu/mL to 100,000 cfu/mL)). For the same compound, the “Grade code, P. vulgaris, 3 Days” value (Proteus vulgaris; [2]) was 3 (101 to 1000 colonies (thus 1000 to 10,000 cfu/mL)), the “Grade code, P. vulgaris, 3 Days” value (Proteus vulgaris; [3]) was 1 (1 to 51 colonies counted (thus 10 to 510 cfu/mL)) and the “Grade code, P. vulgaris, 13 Days” value (Proteus vulgaris; 13 days incubation, listed as 0.5% AB) was 4 (1001 to 10,000 colonies (thus 10,000 cfu/mL to 100,000 cfu/mL)). For the same compound, the “Grade code, P. vulgaris, 13 Days” value (Proteus vulgaris; 13 days incubation, listed as 1.25% AB) was 2 (52 to 100 colonies counted (thus 520 to 1000 cfu/mL)), the “Grade code, P. vulgaris, 13 Days” value (Proteus vulgaris; 13 days incubation, listed as 2.5% AB) was 0 (No growth detected or <1 colony (thus <10 cfu/mL)) and the “Grade code, P. vulgaris, 30 Day” value (Proteus vulgaris; [4]) was 4 (1001 to 10,000 colonies (thus 10,000 cfu/mL to 100,000 cfu/mL)). The “Grade code, P. vulgaris, 30 Day” value (Proteus vulgaris; [5]) was 0 (No growth detected or <1 colony (thus <10 cfu/mL)), the “Grade code, P. vulgaris, 30 Day” value (Proteus vulgaris; [6]) was 0 (No growth detected or <1 colony (thus <10 cfu/mL)) and the “Grade code B. subtilis” value (Bacillus subtilis; 0.5%, 3 days incubation) was 4 (1001 to 10,000 colonies (thus 10,000 cfu/mL to 100,000 cfu/mL)). The “Grade code B. subtilis” value (Bacillus subtilis; 0.5%, 14 days incubation) was 4 (1001 to 10,000 colonies (thus 10,000 cfu/mL to 100,000 cfu/mL)), the “Grade code B. subtilis” value (Bacillus subtilis; 0.5%, 30 days incubation) was 4 (1001 to 10,000 colonies (thus 10,000 cfu/mL to 100,000 cfu/mL)) and the “Grade code B. subtilis” value (Bacillus subtilis; 1.25%, 3 days incubation) was 4 (1001 to 10,000 colonies (thus 10,000 cfu/mL to 100,000 cfu/mL)). The “Grade code B. subtilis” value (Bacillus subtilis; 1.25%, 14 days incubation) was 4 (1001 to 10,000 colonies (thus 10,000 cfu/mL to 100,000 cfu/mL)), the “Grade code B. subtilis” value (Bacillus subtilis; 1.25%, 30 days incubation) was 4 (1001 to 10,000 colonies (thus 10,000 cfu/mL to 100,000 cfu/mL)) and the “Grade code B. subtilis” value (Bacillus subtilis; 2.5%, 3 days incubation) was 3 (101 to 1000 colonies (thus 1000 to 10,000 cfu/mL)). The “Grade code B. subtilis” value (Bacillus subtilis; 2.5%, 14 days incubation) was 2 (52 to 100 colonies counted (thus 520 to 1000 cfu/mL)) and the “Grade code B. subtilis” value (Bacillus subtilis; 2.5%, 30 days incubation) was 1 (1 to 51 colonies counted (thus 10 to 510 cfu/mL)).
